Reference: patent publication US9834542B2, “LXR modulators” (BRISTOL-MYERS SQUIBB COMPANY, priority 2013, dated 2017)

Target: T1, LXRβ (Homo sapiens, UniProt P55055)
T1 construct: Co-transfection expression plasmids, comprising full-length LXRα (pCMX-h LXRα[…] or LXRβ (pCMX-hLXRβ)); expressed in transfected cells; host or cells: CV-1 African Green Monkey Kidney Cells
T1 sequence (P55055 1-460): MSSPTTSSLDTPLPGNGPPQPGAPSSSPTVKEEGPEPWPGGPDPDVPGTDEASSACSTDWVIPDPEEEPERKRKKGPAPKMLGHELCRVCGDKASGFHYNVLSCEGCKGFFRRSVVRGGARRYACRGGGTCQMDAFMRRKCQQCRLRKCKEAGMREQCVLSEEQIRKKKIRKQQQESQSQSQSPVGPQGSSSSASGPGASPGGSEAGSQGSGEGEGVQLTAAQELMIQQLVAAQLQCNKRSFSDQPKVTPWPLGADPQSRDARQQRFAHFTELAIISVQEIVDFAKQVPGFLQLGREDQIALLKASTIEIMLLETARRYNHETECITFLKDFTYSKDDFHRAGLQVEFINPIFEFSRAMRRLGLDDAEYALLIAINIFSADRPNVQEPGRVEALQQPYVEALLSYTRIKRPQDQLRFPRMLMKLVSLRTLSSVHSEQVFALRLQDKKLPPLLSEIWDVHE
T1 sequence (P19793 1-462 partner): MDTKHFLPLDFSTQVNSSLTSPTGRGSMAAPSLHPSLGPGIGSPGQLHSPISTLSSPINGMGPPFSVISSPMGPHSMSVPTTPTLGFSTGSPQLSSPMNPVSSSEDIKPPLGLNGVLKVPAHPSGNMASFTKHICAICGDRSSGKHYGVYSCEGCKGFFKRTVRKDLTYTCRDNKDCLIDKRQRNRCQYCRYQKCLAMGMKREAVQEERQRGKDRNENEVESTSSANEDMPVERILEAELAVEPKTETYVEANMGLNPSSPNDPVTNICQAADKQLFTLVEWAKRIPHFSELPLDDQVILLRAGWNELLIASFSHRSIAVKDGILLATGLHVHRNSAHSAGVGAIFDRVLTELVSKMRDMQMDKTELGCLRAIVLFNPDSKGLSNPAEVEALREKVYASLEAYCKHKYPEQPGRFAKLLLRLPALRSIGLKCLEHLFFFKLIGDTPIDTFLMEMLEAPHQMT
Assay: Co-transfection assay (LXRE luciferase reporter), LXRβ
Format: cell-based
Details: for EC50: CV-1 cells transfected with pCMX-hLXRβ and LXREx1-Tk-Luciferase, 20 hours incubation; for Emax: LXRβ co-transfection, relative to high control 1-(2,4-difluorobenzyl)-2-oxo-6-(4-phenoxyphenyl)-4-(trifluoromethyl)-1,2-dihydropyridine-3-carbonitrile, read-out: % Efficacy
In short: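 Luciferase signal from an LXREx1-Tk reporter was measured after transfected CV-1 cells (full-length hLXRβ, endogenous RXR) were treated with compounds for 20 h at 37 °C, ≤0.5% DMSO. EC50 came from four-parameter fits of 11-point ½-log curves; % efficacy versus a reference agonist maximum.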

Cc1ccc(-c2oc(C)nc2-c2cc(-c3cccc(S(C)(=O)=O)c3)ccc2-n2cc(C(F)(F)F)nc2C)cc1 [Example 491, 2-methyl-4-(4-(2-methyl-4-(trifluoromethyl)-1H-imidazol-1-yl)-3′-(methylsulfonyl)-[1,1′-biphenyl]-3-yl)-5-(p-tolyl)oxazole]
EC50: 63 nM | Emax: 71%

Cc1nc(C(C)(F)F)cn1-c1ccc(-c2cccc(S(=O)(=O)N(C)C)c2)cc1-n1nncc1-c1ccc(OC(F)(F)F)cc1 [Example 181, 4′-[4-(1,1-difluoroethyl)-2-methyl-1H-imidazol-1-yl]-N,N-dimethyl-3′-(5-{4-[(trifluoromethyl)oxy]phenyl}-1H-1,2,3-triazol-1-yl)biphenyl-3-sulfonamide]
EC50: 502 nM | Emax: 70%

Cc1nc(C(F)(F)F)cn1-c1ccc(-c2cccc(S(C)(=O)=O)c2)cc1-c1nc(C(F)(F)F)cn1-c1ccc(Cl)nc1 [Example 642, 2-chloro-5-(2-(4-(2-methyl-4-(trifluoromethyl)-1H-imidazol-1-yl)-3′-(methylsulfonyl)biphenyl-3-yl)-4-(trifluoromethyl)-1H-imidazol-1-yl)pyridine]
EC50: 1150 nM | Emax: 32%

Cc1ccc(-c2cnnn2-c2cc(-c3cc(F)c(CO)c(S(C)(=O)=O)c3)ccc2-n2cc(C(F)(F)F)nc2C)cc1 [Example 48, {3-fluoro-3′-[5-(4-methylphenyl)-1H-1,2,3-triazol-1-yl]-5-(methylsulfonyl)-4′-[2-methyl-4-(trifIuoromethyl)-1H-imidazol-1-yl]biphenyl-4-yl}methanol]
EC50: 158 nM | Emax: 89%

Cc1nc(C(F)(F)F)c(Cl)n1-c1ccc(-c2cc(F)c(CO)c(S(C)(=O)=O)c2)cc1-n1nncc1-c1ccc(OC(F)(F)F)cc1 [Example 1, {4′-[5-chloro-2-methyl-4-(trifluoromethyl)-1H-imidazol-1-yl]-3-fluoro-5-(methylsulfonyl)-3′-(5-{4-[(trifluoromethyl)oxy]phenyl}-1H-1,2,3-triazol-1-yl)biphenyl-4-yl}methanol]
EC50: 40 nM | Emax: 116%

Cc1nc(-c2cc(-c3cccc(C4(C(N)=O)CC4)c3)ccc2-n2cc(C(F)(F)F)nc2C)c(-c2ccc3c(c2)OC(F)(F)O3)o1 [Example 446, 1-(3′-(5-(2,2-difluorobenzo[d][1,3]dioxol-5-yl)-methyloxazol-4-yl)-4′-(2-methyl-4-(trifluoromethyl)-1H-imidazol-1-yl)biphenyl-3-yl)cyclopropanecarboxamide]
EC50: 836 nM | Emax: 51%

Cc1nc(C(F)(F)F)cn1-c1ccc(-c2cccc(S(C)(=O)=O)c2)cc1-n1nncc1C(C)(F)c1ccc(Cl)cc1 (stereo not shown) [Example 224, 5-(1-(4-chlorophenyl)-1-fluoroethyl)-1-(4-(2-methyl-4-(trifluoromethyl)-1H-imidazol-1-yl)-3′-(methylsulfonyl)-[1,1′-biphenyl]-3-yl)-1H-1,2,3-triazole]
EC50: 411 nM | Emax: 57%

Cc1nc(-c2cc(-c3cc(F)c(CO)c(S(C)(=O)=O)c3)ccc2-n2cc(C(F)(F)F)nc2C)c(-c2ccc(OC(F)F)nc2)o1 [Example 385, (3′-(5-(6-(difluoromethoxy)pyridin-3-yl)-2-methyloxazol-4-yl)-3-fluoro-4′-(2-methyl-4-(trifluoromethyl)-1H-imidazol-1-yl)-5-(methylsulfonyl)biphenyl-4-yl)methanol]
EC50: 15 nM | Emax: 79%

Cc1cc(-c2cc(-c3cccc(S(C)(=O)=O)c3)ccc2-n2cc(C(F)(F)F)nc2C)n(-c2ccc(OC(F)F)cc2)n1 [Example 301, 1-(4-(difluoromethoxy)phenyl)-3-methyl-5-(4-(2-methyl-4-(trifluoromethyl)-1H-imidazol-1-yl)-3′-(methylsulfonyl)biphenyl-3-yl)-1H-pyrazole]
EC50: 49 nM | Emax: 91%

Cc1nc(C(F)(F)F)cn1-c1ccc(-c2cccc(S(C)(=O)=O)c2)cc1-n1nncc1-c1ccc(Cl)c(C#N)c1 [Example 41, 2-chloro-5-(1-{3′-(methylsulfonyl)-4-[2-methyl-4-(trifluoromethyl)-1H-imidazol-1-yl]biphenyl-3-yl}-1H-1,2,3-triazol-5-yl)benzonitrile]
EC50: 1050 nM | Emax: 74%

CS(=O)(=O)c1cccc(-c2ccc(-n3cc(C(F)(F)F)nc3Cl)c(-n3nncc3-c3ccc(Cl)cc3)c2)c1 [Example 2, 5-(4-chlorophenyl)-1-{4-[2-chloro-4-(trifluoromethyl)-1H-imidazol-1-yl]-3′-(methylsulfonyl)biphenyl-3-yl}-1H-1,2,3-triazole]
EC50: 680 nM | Emax: 80%

Cc1nc(-c2cc(-c3cccc(C(=O)N(C)C)c3)ccc2-n2cc(C(F)(F)F)nc2C)c(-c2ccc(OC(F)F)c(F)c2)o1 [Example 442, 3′-(5-(4-(difluoromethoxy)-3-fluorophenyl)-2-methyloxazol-4-yl)-N,N-dimethyl-4′-(2-methyl-4-(trifluoromethyl)-1H-imidazol-1-yl)biphenyl-3-carboxamide]
EC50: 729 nM | Emax: 58%

Cc1nc(-c2ccc3c(c2)OC(F)(F)O3)c(-c2cc(-c3ccc(CO)c(S(C)(=O)=O)c3)ccc2-n2cc(C(F)(F)F)nc2C)o1 [Example 616, (3′-(4-(2,2-difluorobenzo[d][1,3]dioxol-5-yl)-2-methyloxazol-5-yl)-4′-(2-methyl-4-(trifluoromethyl)-1H-imidazol-1-yl)-3-(methylsulfonyl)-[1,1′-biphenyl]-4-yl)methanol]
EC50: 45 nM | Emax: 96%

CCCCOc1ccc(-c2cnnn2-c2cc(-c3cccc(S(C)(=O)=O)c3)ccc2-n2cc(C(F)(F)F)nc2C)cc1 [Example 30, 5-[4-(butyloxy)phenyl]-1-{3′-(methylsulfonyl)-4-[2-methyl-4-(trifluoromethyl)-1H-imidazol-1-yl]biphenyl-3-yl}-1H-1,2,3-triazole]
EC50: 605 nM | Emax: 85%

Cc1nc(C(F)(F)F)cn1-c1ccc(-c2cc(F)c(CO)c(S(C)(=O)=O)c2)cc1-n1nncc1C(=O)c1ccc(Cl)cc1 [Example 140, (4-chlorophenyl)(1-{3′-fluoro-4′-(hydroxymethyl)-5′-(methylsulfonyl)-4-[2-methyl-4-(trifluoromethyl)-1H-imidazol-1-yl]biphenyl-3-yl}-1H-1,2,3-triazol-5-yl)methanone]
EC50: 383 nM | Emax: 64%

CCOCc1ccc(-c2ccc(-n3cc(C(F)(F)F)nc3C)c(-n3nncc3-c3ccc(OC(F)(F)F)cc3)c2)cc1S(C)(=O)=O [Example 85, 1-{4′-[(ethyloxy)methyl]-3′-(methylsulfonyl)-4-[2-methyl-4-(trifluoromethyl)-1H-imidazol-1-yl]biphenyl-3-yl}-5-{4-[(trifluoromethyl)oxy]phenyl}-1H-1,2,3-triazole]
EC50: 118 nM | Emax: 123%

CCS(=O)(=O)c1cccc(-c2ccc(-n3cc(C(C)(F)F)nc3C)c(-n3nncc3-c3ccc(OC(F)(F)F)cc3)c2)c1 [Example 177, 1-{4-[4-(1,1-difluoroethyl)-2-methyl-1H-imidazol-1-yl]-3′-(ethylsulfonyl)biphenyl-3-yl}-5-{4-[(trifluoromethyl)oxy]phenyl}-1H-1,2,3-triazole]
EC50: 894 nM | Emax: 78%
